Data published in US8097722B2 (priority 2008, dated 2012).

Legend:
Type in all cases: biochemical, porcine
[1] = test system: brain PMPMEase
[2] = test system: liver PMPMEase
[3] = molecular target: T1, Purified PMPMEase (Sus scrofa, UniProt Q29550)
T1 construct: from tissue; host or cells: porcine liver supernatant, purified by column chromatography
T1 sequence (Q29550 19-566): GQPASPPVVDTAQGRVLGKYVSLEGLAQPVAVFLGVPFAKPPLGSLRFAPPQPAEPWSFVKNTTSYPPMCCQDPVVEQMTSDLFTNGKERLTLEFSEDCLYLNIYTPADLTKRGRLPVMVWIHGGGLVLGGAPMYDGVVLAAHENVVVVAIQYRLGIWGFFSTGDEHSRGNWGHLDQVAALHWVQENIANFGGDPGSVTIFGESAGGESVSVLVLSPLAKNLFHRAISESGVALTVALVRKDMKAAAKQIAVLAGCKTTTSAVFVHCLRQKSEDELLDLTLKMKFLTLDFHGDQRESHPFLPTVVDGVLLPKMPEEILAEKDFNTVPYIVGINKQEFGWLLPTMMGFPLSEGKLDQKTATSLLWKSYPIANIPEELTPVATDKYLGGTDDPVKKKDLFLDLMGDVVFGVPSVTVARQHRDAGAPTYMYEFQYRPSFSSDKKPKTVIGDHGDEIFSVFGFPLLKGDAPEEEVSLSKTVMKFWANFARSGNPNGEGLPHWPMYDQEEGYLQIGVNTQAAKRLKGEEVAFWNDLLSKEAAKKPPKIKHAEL

## COP(=S)(OC)Oc1ccc(Sc2ccc(OP(=S)(OC)OC)cc2)cc1 [Abate]
[1]
  Brain Mean (mean percent inhibition relative to the controls): 59%
[2]
  Liver Mean (mean percent inhibition relative to the controls): 80%

## COC(=O)NS(=O)(=O)c1ccc(N)cc1 [Asulam]
[3]
  Residual activity (% of Control, SEM, n = 3) 0.01 mM: 113 ± 6.3 % of Control
  Residual activity (% of Control, SEM, n = 3) 1 mM: 91.7 ± 6.9 % of Control

## COP(=S)(OC)SCn1nnc2ccccc2c1=O [Azinphos-M]
[1]
  Brain Mean (mean percent inhibition relative to the controls): 73%
[2]
  Liver Mean (mean percent inhibition relative to the controls): 47%

## CCOP(=S)(OCC)Oc1cc(Cl)c(Br)cc1Cl [Bromophos-E]
[1]
  Brain Mean (mean percent inhibition relative to the controls): 68%
[2]
  Liver Mean (mean percent inhibition relative to the controls): 76%

## CCOP(=S)(OCC)SCSc1ccc(Cl)cc1 [Carbophenothion]
[1]
  Brain Mean (mean percent inhibition relative to the controls): 55%
[2]
  Liver Mean (mean percent inhibition relative to the controls): 49%

## CCOP(=S)(OCC)SCCl [Chlormefos]
[1]
  Brain Mean (mean percent inhibition relative to the controls): 65%
[2]
  Liver Mean (mean percent inhibition relative to the controls): 86%

## CCOP(=S)(OCC)ON=C(C#N)c1ccccc1Cl [Chlorphoxim]
[1]
  Brain Mean (mean percent inhibition relative to the controls): 55%
[2]
  Liver Mean (mean percent inhibition relative to the controls): 100%

## CCOP(=S)(OCC)Oc1nc(Cl)c(Cl)cc1Cl [Chlorpyriphos]
[1]
  Brain Mean (mean percent inhibition relative to the controls): 67%
[2]
  Liver Mean (mean percent inhibition relative to the controls): 100%

## CCOP(=S)(OCC)Oc1cc(Cl)c(SC)cc1Cl [Chlorthiophos]
[1]
  Brain Mean (mean percent inhibition relative to the controls): 22%
[2]
  Liver Mean (mean percent inhibition relative to the controls): 52%

## CCOP(=S)(OCC)Oc1ccc2c(C)c(Cl)c(=O)oc2c1 [Coumaphos]
[1]
  Brain Mean (mean percent inhibition relative to the controls): 62%
[2]
  Liver Mean (mean percent inhibition relative to the controls): 46%

## COP(=S)(Oc1ccc(C#N)cc1)c1ccccc1 (centres unmarked) [Cyamophenphos]
[1]
  Brain Mean (mean percent inhibition relative to the controls): 52%
[2]
  Liver Mean (mean percent inhibition relative to the controls): 53%

## COP(=S)(OC)Oc1ccc(C#N)cc1 [Cyanophos]
[1]
  Brain Mean (mean percent inhibition relative to the controls): 65%
[2]
  Liver Mean (mean percent inhibition relative to the controls): 89%

## CCSCCSP(=O)(OC)OC [Demeton-S-M]
[1]
  Brain Mean (mean percent inhibition relative to the controls): 31%
[2]
  Liver Mean (mean percent inhibition relative to the controls): 12%

## CCOP(=O)(OCC)SCCSCC [Demeton-S]
[1]
  Brain Mean (mean percent inhibition relative to the controls): 62%
[2]
  Liver Mean (mean percent inhibition relative to the controls): 96%

## CCOP(=S)(OCC)SC(CCl)N1C(=O)c2ccccc2C1=O (centres unmarked) [Dialifos]
[1]
  Brain Mean (mean percent inhibition relative to the controls): 52%
[2]
  Liver Mean (mean percent inhibition relative to the controls): 96%

## CCOP(=S)(OCC)Oc1cc(C)nc(C(C)C)n1 [Diazinon]
[1]
  Brain Mean (mean percent inhibition relative to the controls): 31%
[2]
  Liver Mean (mean percent inhibition relative to the controls): 95%

## CCOP(=S)(OCC)Oc1ccc(Cl)cc1Cl [Dichlofenthion]
[1]
  Brain Mean (mean percent inhibition relative to the controls): NO INHIBITION
[2]
  Liver Mean (mean percent inhibition relative to the controls): 56%

## COP(=O)(OC)OC=C(Cl)Cl [Dichlorvos]
[1]
  Brain Mean (mean percent inhibition relative to the controls): 81%
[2]
  Liver Mean (mean percent inhibition relative to the controls): 83%

## CNC(=O)CSP(=S)(OC)OC [Dimethoate]
[2]
  Liver Mean (mean percent inhibition relative to the controls): 12%

## CCOP(=S)(OCC)SC1OCCOC1SP(=S)(OCC)OCC (centres unmarked) [Dioxathion]
[1]
  Brain Mean (mean percent inhibition relative to the controls): 15%
[2]
  Liver Mean (mean percent inhibition relative to the controls): 57%

## CCOP(=S)(OCC)SCCSCC [Disulfoton]
[1]
  Brain Mean (mean percent inhibition relative to the controls): NO INHIBITION
[2]
  Liver Mean (mean percent inhibition relative to the controls): 38%

## CCOP(=S)(OCC)SCSP(=S)(OCC)OCC [Ethion]
[1]
  Brain Mean (mean percent inhibition relative to the controls): NO INHIBITION
[2]
  Liver Mean (mean percent inhibition relative to the controls): 92%

## CCOc1cc(OP(=S)(OC)OC)nc(CC)n1 [Etrimfos]
[1]
  Brain Mean (mean percent inhibition relative to the controls): 78%
[2]
  Liver Mean (mean percent inhibition relative to the controls): 100%

## COP(=S)(OC)Oc1ccc(S(=O)(=O)N(C)C)cc1 [Famphur]
[1]
  Brain Mean (mean percent inhibition relative to the controls): 60%
[2]
  Liver Mean (mean percent inhibition relative to the controls): 71%

## COP(=S)(OC)Oc1ccc([N+](=O)[O-])c(C)c1 [Fenitrothion]
[1]
  Brain Mean (mean percent inhibition relative to the controls): 75%
[2]
  Liver Mean (mean percent inhibition relative to the controls): 98%

## CCOP(=S)(OCC)Oc1ccc([S+](C)[O-])cc1 (centres unmarked) [Fensulfothion]
[1]
  Brain Mean (mean percent inhibition relative to the controls): 100%
[2]
  Liver Mean (mean percent inhibition relative to the controls): 100%

## COP(=S)(OC)Oc1ccc(SC)c(C)c1 [Fenthion]
[1]
  Brain Mean (mean percent inhibition relative to the controls): 17%
[2]
  Liver Mean (mean percent inhibition relative to the controls): 40%

## COP(=S)(OC)Oc1cc(Cl)c(I)cc1Cl [Jodfenphos]
[1]
  Brain Mean (mean percent inhibition relative to the controls): 69%
[2]
  Liver Mean (mean percent inhibition relative to the controls): 96%

## COP(=S)(Oc1cc(Cl)c(Br)cc1Cl)c1ccccc1 (centres unmarked) [Leptophos]
[1]
  Brain Mean (mean percent inhibition relative to the controls): 29%
[2]
  Liver Mean (mean percent inhibition relative to the controls): 60%

## CCOC(=O)CC(SP(=O)(OC)OC)C(=O)OCC (centres unmarked) [Malaoxon]
[1]
  Brain Mean (mean percent inhibition relative to the controls): 51%
[2]
  Liver Mean (mean percent inhibition relative to the controls): 87%

## CCOC(=O)CC(SP(=S)(OC)OC)C(=O)OCC (centres unmarked) [Malathion]
[1]
  Brain Mean (mean percent inhibition relative to the controls): 51%
[2]
  Liver Mean (mean percent inhibition relative to the controls): 53%

## CCOP(=O)(N=C1SCC(C)S1)OCC (centres unmarked) [Mephosfolan]
[2]
  Liver Mean (mean percent inhibition relative to the controls): 100%

## COC(=O)/C(C)=C/OP(=S)(OC)OC [Methacrifos]
[1]
  Brain Mean (mean percent inhibition relative to the controls): 61%
[2]
  Liver Mean (mean percent inhibition relative to the controls): 87%

## COP(N)(=O)SC (centres unmarked) [Methamidophos]
[1]
  Brain Mean (mean percent inhibition relative to the controls): 24%
[2]
  Liver Mean (mean percent inhibition relative to the controls): 45%

## COc1nn(CSP(=S)(OC)OC)c(=O)s1 [Methidathion]
[1]
  Brain Mean (mean percent inhibition relative to the controls): 56%
[2]
  Liver Mean (mean percent inhibition relative to the controls): 78%

## COP(=S)(OC)Oc1ccc([N+](=O)[O-])cc1 [Methyl-Parathion]
[1]
  Brain Mean (mean percent inhibition relative to the controls): 75%
[2]
  Liver Mean (mean percent inhibition relative to the controls): 100%

## CNC(=O)CSP(=O)(OC)OC [Omethoate]
[1]
  Brain Mean (mean percent inhibition relative to the controls): 33%
[2]
  Liver Mean (mean percent inhibition relative to the controls): 12%

## CCOP(=O)(NC(C)C)Oc1ccc(SC)c(C)c1 (centres unmarked) [Phenamiphos]
[2]
  Liver Mean (mean percent inhibition relative to the controls): 92%

## CCOC(=O)C(SP(=S)(OC)OC)c1ccccc1 (centres unmarked) [Phenthoate]
[1]
  Brain Mean (mean percent inhibition relative to the controls): 55%
[2]
  Liver Mean (mean percent inhibition relative to the controls): 96%

## CCOP(=S)(OCC)SCn1c(=O)oc2cc(Cl)ccc21 [Phosalone]
[1]
  Brain Mean (mean percent inhibition relative to the controls): 62%
[2]
  Liver Mean (mean percent inhibition relative to the controls): 79%

## COC(=O)/C=C(\C)OP(=O)(OC)OC [Phosdrin]
[1]
  Brain Mean (mean percent inhibition relative to the controls): 67%
[2]
  Liver Mean (mean percent inhibition relative to the controls): 70%

## CCN(CC)C(=O)/C(Cl)=C(/C)OP(=O)(OC)OC [Phosphamidon]
[1]
  Brain Mean (mean percent inhibition relative to the controls): 53%
[2]
  Liver Mean (mean percent inhibition relative to the controls): 69%

## CCN(CC)c1nc(C)cc(OP(=S)(OC)OC)n1 [Pirimiphos-M]
[1]
  Brain Mean (mean percent inhibition relative to the controls): 42%
[2]
  Liver Mean (mean percent inhibition relative to the controls): 79%

## CCCSP(=O)(OCC)Oc1ccc(Br)cc1Cl (centres unmarked) [Profenofos]
[1]
  Brain Mean (mean percent inhibition relative to the controls): 81%
[2]
  Liver Mean (mean percent inhibition relative to the controls): 97%

## CCCSP(=O)(OCC)Oc1cnn(-c2ccc(Cl)cc2)c1 (centres unmarked) [Pyraclofos]
[1]
  Brain Mean (mean percent inhibition relative to the controls): 82%
[2]
  Liver Mean (mean percent inhibition relative to the controls): 95%

## COP(=S)(OC)Oc1cc(Cl)c(Cl)cc1Cl [Ronnel]
[1]
  Brain Mean (mean percent inhibition relative to the controls): 45%
[2]
  Liver Mean (mean percent inhibition relative to the controls): 93%

## CNP(=S)(OC)O/C(C)=C/C(=O)OC(C)C (centres unmarked) [Safrotin]
[1]
  Brain Mean (mean percent inhibition relative to the controls): 52%
[2]
  Liver Mean (mean percent inhibition relative to the controls): 54%

## CCOP(=S)(OCC)OP(=S)(OCC)OCC [Sulfotep]
[1]
  Brain Mean (mean percent inhibition relative to the controls): 47%
[2]
  Liver Mean (mean percent inhibition relative to the controls): 97%

## CCOP(=S)(OCC)SCSC(C)(C)C [Terbufos]
[1]
  Brain Mean (mean percent inhibition relative to the controls): 100%
[2]
  Liver Mean (mean percent inhibition relative to the controls): 72%

## COP(=O)(OC)O/C(=C/Cl)c1cc(Cl)c(Cl)cc1Cl [Tetrachlorvinphos]
[1]
  Brain Mean (mean percent inhibition relative to the controls): 100%
[2]
  Liver Mean (mean percent inhibition relative to the controls): 91%

## CCCSP(=S)(OCC)Oc1ccc(Cl)cc1Cl (centres unmarked) [Tokuthion]
[1]
  Brain Mean (mean percent inhibition relative to the controls): 100%
[2]
  Liver Mean (mean percent inhibition relative to the controls): 76%

## CNC(=O)C(C)SCCSP(=O)(OC)OC (centres unmarked) [Vamidothion]
[2]
  Liver Mean (mean percent inhibition relative to the controls): 55%

## Acephate
[1]
  Brain Mean (mean percent inhibition relative to the controls): 50%
[2]
  Liver Mean (mean percent inhibition relative to the controls): NO INHIBITION

## Dicrotophos
[2]
  Liver Mean (mean percent inhibition relative to the controls): 56%

## Edifenphos
[1]
  Brain Mean (mean percent inhibition relative to the controls): 81%
[2]
  Liver Mean (mean percent inhibition relative to the controls): 97%

## Heptenophos
[1]
  Brain Mean (mean percent inhibition relative to the controls): 71%
[2]
  Liver Mean (mean percent inhibition relative to the controls): 96%

## Monocrotophos
[1]
  Brain Mean (mean percent inhibition relative to the controls): 30%
[2]
  Liver Mean (mean percent inhibition relative to the controls): 18%

## Prothiofos
[1]
  Brain Mean (mean percent inhibition relative to the controls): 6%
[2]
  Liver Mean (mean percent inhibition relative to the controls): 52%

## Trichlorfon
[1]
  Brain Mean (mean percent inhibition relative to the controls): 100%
[2]
  Liver Mean (mean percent inhibition relative to the controls): 91%
